According to patent publication US6849435B2, “Use of VLCFAE for identifying herbicidally active compounds” (Bayer Aktiengesellschaft, priority 2000, dated 2005):
“Also recorded” adds a separate entry of the source.

Columns and labels:
[1] = system: C18:1 fatty acid elongation; conditions: cited from earlier work
Arabidopsis thaliana = assay: Herbicide treatment of Arabidopsis thaliana with flufenacet: generation of the fiddlehead phenotype; type: in vivo, Arabidopsis thaliana (ecotype Columbia Col-0)
Procedure: Herbicide Treatment of Arabidopsis thaliana With Flufenacet: Generation of the Fiddlehead Phenotype Arabidopsis seeds (ecotype Columbia Col-0), which were stored at 4° C., were sown in soil and cultivated at 22° C.±2° C. under long-day conditions (16 h light/8h dark). Plants 2 weeks old were sprayed with 250 g/ha and 50 g/ha flufenacet and cultivated further at 22° C.±2° C. under long-day conditions (16 h light/8h dark). […] These fusions are very similar to those in the “fiddlehead” mutants.

Compound: CN(C)c1cnn(-c2ccccc2)c(=O)c1Cl [BAS 13-338]
- inhibition of C18:1 fatty acid elongation [1]: inhibit C18:1 fatty acid elongation

Compound: CC(C)N(C(=O)COc1nnc(C(F)(F)F)s1)c1ccc(F)cc1 [flufenacet]
- appearance of flowers after recovery (Arabidopsis thaliana; from day 18 after treatment with 250 g/ha and 50 g/ha): all the flowers appear normal again
- fusion of the rosette leaves (Arabidopsis thaliana; in vivo): leads to fusion of the rosette leaves
- fiddlehead phenotype (fusion of flower organs) (Arabidopsis thaliana; plants 2 weeks old sprayed with 250 g/ha and 50 g/ha, between day 7 and day 11 after treatment): fiddlehead phenotype can be induced; also recorded: the flower organs fuse with the uppermost cauline leaves
